In patent US6350751B1, “Therapeutic agents” (Pfizer Inc., priority 1999, dated 2002):

What was measured:
[1] = investigation of hydrate and polymorph formation of salts; format: physicochemical; conditions: for formation of crystalline hydrates: under a range of conditions
Source text: Hydrated salts can provide particular issues in processing, especially during for example the milling and/or drying stages. It has been disclosed that the tendency of organic molecules to hydrate can be predicted from their molecular structure, “Hydration in organic crystals: prediction from molecular structure”, Desiraju, Gautam R. Sch. Chem., Univ. Hyderabad, Hyderabad, 500 134, India. J. Chem. Soc., Chem. Commun. (1991), Issue 6, 426-8. CODEN: JCCCAT; ISSN: 0022-4936. (EN) CAN 114:237859. […] Several of the salts investigated form hydrates.
(§1) The problem of selecting a pharmaceutically acceptable salt form for 3-ethyl-5-[5-(4-ethylpiperazin-1-ylsulphonyl)-2-(2-methoxyethoxy) pyridin-3-yl]-2-(pyridin-2-yl)methyl-2,6-dihydro-7H-pyrazolo[4,3-d]pyrimidin-7-one has been solved by the surprising finding that the anhydrous para-toluene sulphonate salt of formula (I) meets the above criteria for a pharmaceutically acceptable salt. […] This is particularly surprising as initial predictions would indicate that the toslyate salt would form a hydrate, especially given the fact that the besylate salt and other salts investigated hydrated as predicted.
4-{6-Ethoxy-5-[3-ethyl-6,7-dihydro-7-oxo-2-(2-pyridylmethyl)-2H-pyrazolo[4,3-d]pyrimidin-5-yl]-3-pyridylsulfonyl}1-ethylpiperazine (100 g, 0.16 mol) was heated in 2-butanone/6.0% water (600 mL) to 50° C. yielding a pale yellow solution. The reaction mixture was heated to azetropically distil of 160 ml of solvent to remove water. The distilled solution was warmed to 60° C. and the acid solution of p-toluenesulfonic acid monohydrate (31.11 g, 0.16 mol) dissolved in 2-butanone (140 mL) was added over an hour. During the addition of the acid slow crystallisation was observed. The reaction mixture was slowly cooled from 60° C. to 0-5° C. over three hours, and stirred for a further hour, then filtered off the solid, washed with 2-butanone (200 mL) and dried under vacuum at 50° C. to afford the title compound (116 g, 93.7%) as a white solid. Mpt 240° C. (DMSOd6): 1.20 (6H, m), 2.23 (3H, st), 2.75 (2H, m), 2.97 (2H, q), 3.18 (4H, m), 3.35 (3H, s), 3.55 (2H, m), 3.68 (2H, m), 3.83 (2H, m), 4.59 (2H, m), 5.70 (2H, s), 7.08 (2H, d), 7.20 (1H, d), 7.34 (1H, m), 7.43 (2H, d), 7.80 (1H, m), 8.35 (1H, d), 8.70 (1H, d), 8.74 (1H, d). […] Mpt quoted +/−5° C. preferably +/−2° C. […] Additional experiments have shown that on re-slurrying in a mixture of methyl ethyl ketone and water these further polymorphs can be converted to the compound of Example 1.

[2] = stability of the salt (dosage form, drying and milling, drug substance); format: physicochemical
Source text: as §1

Question: With `CCc1c2nc(-c3cc(S(=O)(=O)N4CCN(CC)CC4)cnc3OCCOC)[nH]c(=O)c2nn1Cc1ccccn1` [Example 1] as the molecule, how does the “formation of crystalline hydrates” value [1] read?
Answer: does not appear to form crystalline hydrates

Question: What about the “further polymorphs detected via differential scanning calorimetry (DSC)” value ([1]; under certain conditions, convertible to Example 1 form by re-slurrying in methyl ethyl ketone and water) of the same molecule?
Answer: at least two further polymorphs

Question: What about the “drug substance stability profile” value [2] of the same molecule?
Answer: desirable drug substance stability profile

Question: What about the “physical dosage form stability” value [2] of the same molecule?
Answer: good physical dosage form stability

Question: What about the “stability during drying and milling processes” value [2] of the same molecule?
Answer: demonstrates stability during drying and milling processes

Question: Which results are given for `CCc1c2nc(-c3cc(S(=O)(=O)N4CCN(CC)CC4)cnc3OCCOC)[nH]c(=O)c2nn1Cc1ccccn1.O=S(=O)(O)c1ccccc1` [besylate salt, besylate salt of 3-ethyl-5-[5-(4-ethylpiperazin-1-ylsulphonyl)-2-(2-methoxyethoxy)pyridin-3-yl]-2-(pyridin-2-yl)methyl-2,6-dihydro-7H-pyrazolo [4,3-d]pyrimidin-7-one, reference compound]?
Answer: number of anhydrous polymorphs [1]: at least 5; formation of crystalline hydrates [1]: a hydrated polymorph of the besylate salt is indeed formed
